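Where inhibition never reached the appropriate level, the endpoint shown equals the highest concentration tested. Otherwise, values were interpolated linearly from a five-concentration, 48-hour dose response in 96-well plates. The concentration for 50% growth inhibition is given as GI50. TGI is the concentration that stops growth completely.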
Experiments:
Assay in all cases: growth of human tumour cells (NCI), 48 h; in the data active = GI50 below about 0.43 µM; inactive = the rest
A549 NSCLC = test system: A549 NSCLC
CAKI-1 renal = test system: CAKI-1 renal
HCC-2998 colon = test system: HCC-2998 colon
HCT-15 colon = test system: HCT-15 colon
IGROV1 ovarian = test system: IGROV1 ovarian
LOX IMVI melanoma = test system: LOX IMVI melanoma
NCI-H522 lung = test system: NCI-H522 lung
SK-OV-3 ovarian = test system: SK-OV-3 ovarian
TK-10 renal = test system: TK-10 renal
SR leukemia = test system: SR leukemia

CC(=O)C1C(=O)N(C(C)C)C[C@@H]2CCC(=O)C[C@H]12 (some centres not stated)
> 100 µM: TGI (A549 NSCLC) | TGI (CAKI-1 renal) | TGI (HCC-2998 colon) | TGI (HCT-15 colon) | TGI (IGROV1 ovarian) | TGI (LOX IMVI melanoma) | TGI (NCI-H522 lung) | TGI (SK-OV-3 ovarian) | TGI (TK-10 renal)

OCNCCNc1nc2ccccc2c2[nH]c3ccccc3c12
6.71 µM: TGI (HCT-15 colon)
7.38 µM: TGI (CAKI-1 renal)
1.39 µM: TGI (LOX IMVI melanoma)
7.31 µM: TGI (IGROV1 ovarian)
> 50 µM: TGI (NCI-H522 lung) | TGI (SR leukemia)
9.89 µM: TGI (TK-10 renal)
inactive: GI50 (CAKI-1 renal) 2.01 µM | GI50 (HCT-15 colon) 1.42 µM | GI50 (IGROV1 ovarian) 1.14 µM | GI50 (LOX IMVI melanoma) 0.441 µM | GI50 (NCI-H522 lung) 1.55 µM | GI50 (SR leukemia) 0.902 µM | GI50 (TK-10 renal) 1.76 µM

CCOc1ccc(C(CN2CCOCC2)C(C)=O)cc1OC (configuration not stated)
2.46 µM: TGI (NCI-H522 lung)
23.4 µM: TGI (CAKI-1 renal)
31.1 µM: TGI (LOX IMVI melanoma)
31 µM: TGI (TK-10 renal)
32.3 µM: TGI (HCC-2998 colon)
51.7 µM: TGI (A549 NSCLC)
49.6 µM: TGI (IGROV1 ovarian)
22.5 µM: TGI (HCT-15 colon)

C/C=C1\C(=O)OC2CCN3CCC(COC(=O)C(C)(O)C(C)C1O)C23 (configuration not stated)
> 100 µM: TGI (A549 NSCLC) | TGI (CAKI-1 renal) | TGI (HCC-2998 colon) | TGI (HCT-15 colon) | TGI (IGROV1 ovarian) | TGI (LOX IMVI melanoma) | TGI (NCI-H522 lung) | TGI (SK-OV-3 ovarian) | TGI (TK-10 renal)

CC1(C)CC[C@]2(C(N)=O)CC[C@]3(C)C(=CC[C@@H]4[C@@]5(C)C/C(=C/c6ccncc6)C(=O)C(C)(C)[C@@H]5CC[C@]43C)[C@@H]2C1
6.6 µM: TGI (IGROV1 ovarian)
3.46 µM: TGI (HCT-15 colon)
6.5 µM: TGI (SR leukemia)
11.9 µM: TGI (SK-OV-3 ovarian)
3.45 µM: TGI (HCC-2998 colon)
inactive: GI50 (A549 NSCLC) 2.35 µM | GI50 (HCC-2998 colon) 1.87 µM | GI50 (HCT-15 colon) 1.69 µM | GI50 (IGROV1 ovarian) 2.29 µM | GI50 (NCI-H522 lung) 2.28 µM | GI50 (SK-OV-3 ovarian) 3.13 µM | GI50 (SR leukemia) 2.18 µM | GI50 (TK-10 renal) 2.43 µM
8.22 µM: TGI (A549 NSCLC)
7.5 µM: TGI (TK-10 renal)
7.76 µM: TGI (NCI-H522 lung)

CC1=C(C(=O)Nc2ccc(Cl)c(Cl)c2)C(c2ccccc2O)NC(=O)N1 (configuration not stated)
> 50 µM: TGI (A549 NSCLC) | TGI (CAKI-1 renal) | TGI (HCT-15 colon) | TGI (IGROV1 ovarian) | TGI (LOX IMVI melanoma) | TGI (NCI-H522 lung) | TGI (SK-OV-3 ovarian) | TGI (SR leukemia) | TGI (TK-10 renal)
inactive: GI50 (A549 NSCLC) > 50 µM | GI50 (CAKI-1 renal) > 50 µM | GI50 (HCT-15 colon) > 50 µM | GI50 (IGROV1 ovarian) > 50 µM | GI50 (LOX IMVI melanoma) 33.4 µM | GI50 (NCI-H522 lung) > 50 µM | GI50 (SK-OV-3 ovarian) > 50 µM | GI50 (SR leukemia) 39.9 µM | GI50 (TK-10 renal) 22.1 µM

CCCCCCCCCCCCOP(N)(=O)OCCCCCCCCCCCC
> 100 µM: TGI (A549 NSCLC) | TGI (HCC-2998 colon) | TGI (HCT-15 colon) | TGI (IGROV1 ovarian) | TGI (LOX IMVI melanoma) | TGI (NCI-H522 lung) | TGI (SK-OV-3 ovarian) | TGI (SR leukemia) | TGI (TK-10 renal)

CC(NC(=O)c1ccccc1)(C(=O)O)C(=O)O
> 100 µM: TGI (A549 NSCLC) | TGI (CAKI-1 renal) | TGI (HCT-15 colon) | TGI (IGROV1 ovarian) | TGI (LOX IMVI melanoma) | TGI (NCI-H522 lung) | TGI (SK-OV-3 ovarian) | TGI (SR leukemia) | TGI (TK-10 renal)

CC(=O)Oc1ccc(/C=N/NC(N)=S)nc1
inactive: GI50 (A549 NSCLC) 29.5 µM | GI50 (HCC-2998 colon) 8.96 µM | GI50 (HCT-15 colon) 22.5 µM | GI50 (IGROV1 ovarian) 4.5 µM | GI50 (LOX IMVI melanoma) 3.54 µM | GI50 (NCI-H522 lung) 2.61 µM | GI50 (SK-OV-3 ovarian) 17.8 µM | GI50 (SR leukemia) 1.51 µM | GI50 (TK-10 renal) 47.8 µM
> 100 µM: TGI (A549 NSCLC) | TGI (HCC-2998 colon) | TGI (HCT-15 colon) | TGI (LOX IMVI melanoma) | TGI (NCI-H522 lung) | TGI (SK-OV-3 ovarian) | TGI (SR leukemia) | TGI (TK-10 renal)
26.8 µM: TGI (IGROV1 ovarian)

COc1ccc(S(=O)(=O)N(C)CC(=O)O)cc1
> 100 µM: TGI (A549 NSCLC) | TGI (CAKI-1 renal) | TGI (HCC-2998 colon) | TGI (HCT-15 colon) | TGI (IGROV1 ovarian) | TGI (LOX IMVI melanoma) | TGI (NCI-H522 lung) | TGI (SK-OV-3 ovarian) | TGI (TK-10 renal)

COc1ccc(CCN=C2CCC(C(=O)NCCc3ccc(OC)c(OC)c3)N2)cc1OC (configuration not stated)
> 100 µM: TGI (A549 NSCLC) | TGI (CAKI-1 renal) | TGI (HCC-2998 colon) | TGI (HCT-15 colon) | TGI (IGROV1 ovarian) | TGI (LOX IMVI melanoma) | TGI (NCI-H522 lung) | TGI (SK-OV-3 ovarian) | TGI (TK-10 renal)

CN1CCc2c1nc(-c1ccc([N+](=O)[O-])cc1)c1c2N(C)CC1
> 100 µM: TGI (A549 NSCLC) | TGI (CAKI-1 renal) | TGI (HCC-2998 colon) | TGI (HCT-15 colon) | TGI (IGROV1 ovarian) | TGI (LOX IMVI melanoma) | TGI (SK-OV-3 ovarian) | TGI (TK-10 renal)

FC1OC2OC1C(OCc1ccccc1)C(OCc1ccccc1)C2OCc1ccccc1 (configuration not stated)
> 100 µM: TGI (A549 NSCLC) | TGI (CAKI-1 renal) | TGI (HCT-15 colon) | TGI (IGROV1 ovarian) | TGI (LOX IMVI melanoma) | TGI (SK-OV-3 ovarian) | TGI (TK-10 renal)

CC(=O)OC1CC2C(=O)C(=O)C1(C)C2(C)C (configuration not stated)
> 100 µM: TGI (A549 NSCLC) | TGI (HCC-2998 colon) | TGI (HCT-15 colon) | TGI (IGROV1 ovarian) | TGI (SK-OV-3 ovarian) | TGI (SR leukemia) | TGI (TK-10 renal)

CCCCCCCCCCCCCc1nn[nH]n1
42.6 µM: TGI (NCI-H522 lung)
40.7 µM: TGI (A549 NSCLC)
41.1 µM: TGI (IGROV1 ovarian)
33.7 µM: TGI (HCC-2998 colon)
43.7 µM: TGI (TK-10 renal)
34.6 µM: TGI (HCT-15 colon)
35.4 µM: TGI (LOX IMVI melanoma)
47.3 µM: TGI (SK-OV-3 ovarian)

S=c1nc(-c2ccnc(-c3nc(=S)[nH][nH]3)c2)[nH][nH]1
> 100 µM: TGI (A549 NSCLC) | TGI (CAKI-1 renal) | TGI (HCC-2998 colon) | TGI (HCT-15 colon) | TGI (IGROV1 ovarian) | TGI (LOX IMVI melanoma) | TGI (NCI-H522 lung) | TGI (SK-OV-3 ovarian) | TGI (TK-10 renal)

CCOc1cc(-c2ccc[nH]2)[nH]c1/C=C1\N=C(C)C(C(=O)OC)=C1C
0.318 µM: TGI (NCI-H522 lung)
1.57 µM: TGI (SK-OV-3 ovarian)
0.0705 µM: TGI (HCT-15 colon)
0.0381 µM: TGI (LOX IMVI melanoma)
active: GI50 (A549 NSCLC) 0.0531 µM | GI50 (CAKI-1 renal) 0.0331 µM | GI50 (HCC-2998 colon) 0.0442 µM | GI50 (HCT-15 colon) 0.0148 µM | GI50 (LOX IMVI melanoma) 0.0102 µM | GI50 (NCI-H522 lung) 0.0561 µM | GI50 (SK-OV-3 ovarian) 0.183 µM | GI50 (TK-10 renal) 0.0579 µM
0.194 µM: TGI (CAKI-1 renal)
1.34 µM: TGI (HCC-2998 colon)
0.58 µM: TGI (A549 NSCLC)
1.5 µM: TGI (TK-10 renal)

COc1cc(NC(=O)Nc2cnc(Nc3ccc(N4CCOCC4)cc3)nc2Oc2cccc(OC)c2)cc(OC)c1
6.47 µM: TGI (A549 NSCLC)
11.1 µM: TGI (SK-OV-3 ovarian)
3.62 µM: TGI (HCC-2998 colon)
5.59 µM: TGI (LOX IMVI melanoma)
2.85 µM: TGI (TK-10 renal)
6.25 µM: TGI (NCI-H522 lung)
> 50 µM: TGI (HCT-15 colon) | TGI (SR leukemia)
inactive: GI50 (A549 NSCLC) 1.99 µM | GI50 (HCC-2998 colon) 1.32 µM | GI50 (HCT-15 colon) 5.35 µM | GI50 (IGROV1 ovarian) 1.8 µM | GI50 (LOX IMVI melanoma) 1.47 µM | GI50 (NCI-H522 lung) 1.44 µM | GI50 (SK-OV-3 ovarian) 2.79 µM | GI50 (SR leukemia) 2.71 µM | GI50 (TK-10 renal) 1.11 µM
7.77 µM: TGI (IGROV1 ovarian)

O=C(Cc1ccccc1)NN1C(=O)/C(=C\c2ccc(O)cc2)SC1=Nc1ccccc1
> 100 µM: TGI (A549 NSCLC) | TGI (HCC-2998 colon) | TGI (HCT-15 colon) | TGI (IGROV1 ovarian) | TGI (SK-OV-3 ovarian) | TGI (TK-10 renal)
